Measurements reported in patent US20200231638A1, “STABILIZED ANTI-MICROBIAL PEPTIDES” (priority 2015, published 2020).
Bridge positions count the residues as written; N and C are the ends. Square brackets hold non-standard residues; d marks the D form. Peptide text beside a SMILES is read from it. S5 = C=CCCC[C@](C)(N)C(=O)O; Nle = CCCC[C@H](N)C(=O)O

How the values were obtained:
[1] = system: E. coli; format: cell-based, Escherichia coli
Experimental: (§1) Antimicrobial Activity Assay:
(§2) The following microbroth dilution protocol was adapted to determine the minimum inhibitory concentration (MIC) of each peptide. First, Mueller-Hinton broth (MHB) was passed through an anion exchange column to remove polyanionic species and generate refined MHB. […] Briefly, bacterial cells was grown overnight in refined MHB at 37° C. and then diluted and allowed to grow again for several hours. Serial dilutions of peptide stocks in water (10 μl) were prepared using clear round-bottom polypropylene 96-well plates. Then 90 μl of bacteria in refined MHB was added to give a final inoculum of 5×10^5 CFU/ml. The plates were then covered with porous tape to reduce evaporation, and incubated for 20-24 hours at 37° C. The MIC is the minimum peptide concentration at which no visible growth was observed.

[2] = system: B. cereus; format: cell-based, Bacillus cereus
Experimental: as §1, §2

[3] = system: S. aureus; format: cell-based, Staphylococcus aureus
Experimental: as §1, §2

[4] = system: P. aeruginosa; format: cell-based, Pseudomonas aeruginosa
Experimental: as §1, §2

[5] = system: human red blood cells; format: cell-based; settings: for % Hemolysis at 25 μg/ml: red cells of human, 1 h
Experimental: FIG. 5 is a series of line graphs depicting the hemolytic activity of magainin II and stapled analogues. Peptides were incubated with 1% (v/v) human red blood cells in phosphate-buffered solution for 1 hour at 37° C. and then the supernatant was isolated and the amount of hemoglobin released was measured at 540 nm. % hemolysis was calculated relative to an untreated control.
Hemolytic Activity Assay:
For the determination of hemolytic activity, human blood samples were centrifuged to isolate red blood cells (RBCs), which are then washed and suspended in phosphate-buffered saline to yield a 1% (v/v) suspension. The suspension was then added to serial dilutions of peptide stocks in water in clear round-bottom polypropylene 96-well plates and the plates were incubated for 1 hour at 37° C. After incubation, the plates were centrifuged and the supernatant was isolated to determine the amount of hemoglobin released using a spectrophotometer (570 nm), according to the equation: % Hemolysis=(Treated Absorbance−Untreated Control Absorbance)/(1% Triton-X100 Treated Absorbance−Untreated Control Absorbance). The minimum hemolytic concentration (MHC) is the peptide concentration at which there is less than 1% hemoglobin release.

| SMILES | MIC E. coli [1] | MIC B. cereus [2] | MIC S. aureus [3] | MIC P. aeruginosa [4] | % Hemolysis at 25 μg/ml [5] | hemolytic activity (in words) [5] |
| --- | --- | --- | --- | --- | --- | --- |
| CCCC[C@H](NC(=O)[C@]1(C)CCCC=CCCC[C@](C)(NC(=O)[C@H](C)NC(=O)[C@H](CCCCN)NC(=O)CNC(=O)[C@H](Cc2ccccc2)NC(=O)[C@H](CCCCN)NC(=O)[C@H](CCCCN)NC(=O)[C@H](Cc2c[nH]cn2)NC(=O)[C@H](CO)NC(=O)[C@]2(C)CCCC=CCCC[C@](C)(NC(=O)[C@H](CCCCN)NC(=O)CN)C(=O)N[C@@H](CCCCN)C(=O)N[C@@H](Cc3ccccc3)C(=O)N[C@@H](CC(C)C)C(=O)N2)C(=O)N[C@@H](C(C)C)C(=O)N[C@@H](Cc2c[nH]cn2)C(=O)N[C@@H](CCC(=O)O)C(=O)N1)C(=O)N[C@@H](CCC(=O)O)C(=O)N[C@@H](CO)C(N)=O [Mag(i + 4)2, 15(I2X, A9H, G18H, N21E)] (H-GK[S5]KFL[S5]SHKKFGKA[S5]VHE[S5][Nle]ES-NH2; staple 3-7, 16-20) | 3.1 µg/mL | 6.2 µg/mL | 25 µg/mL | 6.2 µg/mL | 4.0% | – |
| CCCC[C@H](NC(=O)[C@@H](NC(=O)[C@H](CCC(=O)O)NC(=O)CNC(=O)[C@@H](NC(=O)[C@H](Cc1ccccc1)NC(=O)[C@H](C)NC(=O)[C@H](CCCCN)NC(=O)CNC(=O)[C@H](Cc1ccccc1)NC(=O)[C@H](CCCCN)NC(=O)[C@H](CCCCN)NC(=O)[C@H](C)NC(=O)[C@H](CO)NC(=O)[C@]1(C)CCCC=CCCC[C@](C)(NC(=O)[C@@H](NC(=O)CN)[C@@H](C)CC)C(=O)N[C@@H](CCCCN)C(=O)N[C@@H](Cc2ccccc2)C(=O)N[C@@H](CC(C)C)C(=O)N1)C(C)C)[C@@H](C)CC)C(=O)N[C@@H](CC(N)=O)C(=O)N[C@@H](CO)C(N)=O [Mag(i + 4)2] (H-GI[S5]KFL[S5]SAKKFGKAFVGEI[Nle]NS-NH2; staple 3-7) | 3.1 µg/mL | 12.5 µg/mL | 12.5 µg/mL | 12.5 µg/mL | 19.6% | – |
| CCCC[C@H](NC(=O)[C@@H](NC(=O)[C@H](CCC(=O)O)NC(=O)CNC(=O)[C@@H](NC(=O)[C@H](Cc1ccccc1)NC(=O)[C@H](C)NC(=O)[C@H](CCCCN)NC(=O)CNC(=O)[C@H](Cc1ccccc1)NC(=O)[C@H](CCCCN)NC(=O)[C@H](CCCCN)NC(=O)[C@H](C)NC(=O)[C@]1(C)CCCC=CCCC[C@](C)(NC(=O)CNC(=O)[C@@H](NC(=O)CN)[C@@H](C)CC)C(=O)N[C@@H](Cc2ccccc2)C(=O)N[C@@H](CC(C)C)C(=O)N[C@@H](Cc2c[nH]cn2)C(=O)N1)C(C)C)[C@@H](C)CC)C(=O)N[C@@H](CC(N)=O)C(=O)N[C@@H](CO)C(N)=O [Mag(i + 4)3] (H-GIG[S5]FLH[S5]AKKFGKAFVGEI[Nle]NS-NH2; staple 4-8) | 6.2 µg/mL | 12.5 µg/mL | 6.2 µg/mL | 25 µg/mL | 41.6% | – |
| CCCC[C@H](NC(=O)[C@@H](NC(=O)[C@H](CCC(=O)O)NC(=O)CNC(=O)[C@@H](NC(=O)[C@H](Cc1ccccc1)NC(=O)[C@H](C)NC(=O)[C@H](CCCCN)NC(=O)CNC(=O)[C@H](Cc1ccccc1)NC(=O)[C@H](CCCCN)NC(=O)[C@H](CCCCN)NC(=O)[C@]1(C)CCCC=CCCC[C@](C)(NC(=O)[C@H](CCCCN)NC(=O)CNC(=O)[C@@H](NC(=O)CN)[C@@H](C)CC)C(=O)N[C@@H](CC(C)C)C(=O)N[C@@H](Cc2c[nH]cn2)C(=O)N[C@@H](CO)C(=O)N1)C(C)C)[C@@H](C)CC)C(=O)N[C@@H](CC(N)=O)C(=O)N[C@@H](CO)C(N)=O [Mag(i + 4)4] (H-GIGK[S5]LHS[S5]KKFGKAFVGEI[Nle]NS-NH2; staple 5-9) | 3.1 µg/mL | 6.2 µg/mL | 25 µg/mL | 12.5 µg/mL | 17.8% | – |
| CCCC[C@H](NC(=O)[C@@H](NC(=O)[C@H](CCC(=O)O)NC(=O)CNC(=O)[C@@H](NC(=O)[C@H](Cc1ccccc1)NC(=O)[C@H](C)NC(=O)[C@H](CCCCN)NC(=O)CNC(=O)[C@H](Cc1ccccc1)NC(=O)[C@H](CCCCN)NC(=O)[C@]1(C)CCCC=CCCC[C@](C)(NC(=O)[C@H](Cc2ccccc2)NC(=O)[C@H](CCCCN)NC(=O)CNC(=O)[C@@H](NC(=O)CN)[C@@H](C)CC)C(=O)N[C@@H](Cc2c[nH]cn2)C(=O)N[C@@H](CO)C(=O)N[C@@H](C)C(=O)N1)C(C)C)[C@@H](C)CC)C(=O)N[C@@H](CC(N)=O)C(=O)N[C@@H](CO)C(N)=O [Mag(i + 4)5] (H-GIGKF[S5]HSA[S5]KFGKAFVGEI[Nle]NS-NH2; staple 6-10) | 12.5 µg/mL | 12.5 µg/mL | 25 µg/mL | 50 µg/mL | 13.3% | – |
| CCCC[C@H](NC(=O)[C@@H](NC(=O)[C@H](CCC(=O)O)NC(=O)CNC(=O)[C@@H](NC(=O)[C@H](Cc1ccccc1)NC(=O)[C@H](C)NC(=O)[C@H](CCCCN)NC(=O)CNC(=O)[C@]1(C)CCCC=CCCC[C@](C)(NC(=O)[C@H](Cc2c[nH]cn2)NC(=O)[C@H](CC(C)C)NC(=O)[C@H](Cc2ccccc2)NC(=O)[C@H](CCCCN)NC(=O)CNC(=O)[C@@H](NC(=O)CN)[C@@H](C)CC)C(=O)N[C@@H](C)C(=O)N[C@@H](CCCCN)C(=O)N[C@@H](CCCCN)C(=O)N1)C(C)C)[C@@H](C)CC)C(=O)N[C@@H](CC(N)=O)C(=O)N[C@@H](CO)C(N)=O [Mag(i + 4)7] (H-GIGKFLH[S5]AKK[S5]GKAFVGEI[Nle]NS-NH2; staple 8-12) | 3.1 µg/mL | 6.2 µg/mL | 6.2 µg/mL | 6.2 µg/mL | 62.5% | – |
| CCCC[C@H](NC(=O)[C@@H](NC(=O)[C@H](CCC(=O)O)NC(=O)CNC(=O)[C@@H](NC(=O)[C@H](Cc1ccccc1)NC(=O)[C@H](C)NC(=O)[C@H](CCCCN)NC(=O)[C@]1(C)CCCC=CCCC[C@](C)(NC(=O)[C@H](CO)NC(=O)[C@H](Cc2c[nH]cn2)NC(=O)[C@H](CC(C)C)NC(=O)[C@H](Cc2ccccc2)NC(=O)[C@H](CCCCN)NC(=O)CNC(=O)[C@@H](NC(=O)CN)[C@@H](C)CC)C(=O)N[C@@H](CCCCN)C(=O)N[C@@H](CCCCN)C(=O)N[C@@H](Cc2ccccc2)C(=O)N1)C(C)C)[C@@H](C)CC)C(=O)N[C@@H](CC(N)=O)C(=O)N[C@@H](CO)C(N)=O [Mag(i + 4)8, GIGKFLHSXKKFXKAFVGEIBNS] (H-GIGKFLHS[S5]KKF[S5]KAFVGEI[Nle]NS-NH2; staple 9-13) | 3.1 µg/mL | 3.1 µg/mL | 12.5 µg/mL | 3.1 µg/mL | 74.6% | indiscriminate lytic activity |
| CCCC[C@H](NC(=O)[C@@H](NC(=O)[C@H](CCC(=O)O)NC(=O)CNC(=O)[C@@H](NC(=O)[C@H](Cc1ccccc1)NC(=O)[C@H](C)NC(=O)[C@]1(C)CCCC=CCCC[C@](C)(NC(=O)[C@H](C)NC(=O)[C@H](CO)NC(=O)[C@H](Cc2c[nH]cn2)NC(=O)[C@H](CC(C)C)NC(=O)[C@H](Cc2ccccc2)NC(=O)[C@H](CCCCN)NC(=O)CNC(=O)[C@@H](NC(=O)CN)[C@@H](C)CC)C(=O)N[C@@H](CCCCN)C(=O)N[C@@H](Cc2ccccc2)C(=O)NCC(=O)N1)C(C)C)[C@@H](C)CC)C(=O)N[C@@H](CC(N)=O)C(=O)N[C@@H](CO)C(N)=O [Mag(i + 4)9] (H-GIGKFLHSA[S5]KFG[S5]AFVGEI[Nle]NS-NH2; staple 10-14) | 6.2 µg/mL | 12.5 µg/mL | >50 µg/mL | >50 µg/mL | 66.9% | – |
